From patent US8613927B2, “High affinity human antibodies to human nerve growth factor” (Regeneron Pharmaceuticals, Inc., priority 2007, dated 2013)

What was measured:
[1] = tested on: circulating levels of neurotrophin-3 (NT-3); test: Serum NT-3 sandwich ELISA, mice of post incision pain model; assay type: in vivo, mouse; conditions: day 4, 25 mg/kg i.p., mean±std dev, limit of detection ~40 pg/ml
Description: On day 4, after the behavioral tests from post incision pain model were completed, the mice's sera were collected and analyzed for circulating levels of neurotrophin-3 (NT-3) using a sandwich ELISA. The limit of detection (˜40 pg/ml) was defined as two standard deviations (2σ) above background with a minimum of five NT-3 standards to define the response to concentration curve.

C57BL/6 mice = test: Post-operative incision pain model, mechanical allodynia in von Frey test; assay type: in vivo, mouse; conditions: Table 17
Protocol: Thermal hyperalgesia was studied in the Hargreaves' test and mechanical allodynia was tested in the von Frey test. In this latter test, mice were tested after being acclimated for 2-3 hours for 4 days in an apparatus with a wire mesh floor. The test was performed by applying, in ascending order, a series of von Frey hairs through the wire mesh onto the plantar surface of the hind paw with the incision. A response was considered positive if the paw was raised from the platform in response to application of the filament. Starting from the thinnest hair, each von Frey filament was applied up to five times until a response was observed.

C57BL/6 male mice = test: Seltzer model of neuropathic pain, Hargreaves' test; assay type: in vivo, mouse
Description: Neuropathic pain. The mouse Seltzer model of neuropathic pain (Malmberg et al. (1998) Pain 76:215-222) was used with C57BL/6 male mice, in which a partial nerve injury was produced by tying a tight ligature with a 7-0 silk suture around approximately ⅓ to ½ the diameter of the sciatic nerve of one single thigh per mouse. Post-surgery, the mice were allowed to recover for at least two days and then they were studied for several weeks post-surgery for thermal hyperalgesia in the Hargreaves' test. Controls were sham-operated mice in which the sciatic nerve was exposed and elevated but not tied. Following surgery, the mice were tested at day […] and at day 7 post-surgery to confirm that the thermal hyperalgesia had developed.
Following the Seltzer surgery, mice were tested at days 5 and 7 post-surgery to confirm that the thermal hyperalgesia had developed.

[2] = molecular target: Human NGF binding to human TrkA-hFc (Homo sapiens, UniProt P01138, DEL136-138/DEL208-209); test: BIACORE receptor blocking assay, free NGF bound to TrkA-hFc; conditions: percentage free NGF bound; NGF 10-25 nM with molar excess of antibody; NGF alone = 100%
Human NGF binding to human TrkA-hFc, sequence (P01138 with tags, fused parts or gaps DEL136-138/DEL208-209): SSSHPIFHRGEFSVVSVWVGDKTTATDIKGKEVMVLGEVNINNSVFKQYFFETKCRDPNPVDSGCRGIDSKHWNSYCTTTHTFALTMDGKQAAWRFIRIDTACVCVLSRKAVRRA
Description: (§1) To identify blocking antibodies, a receptor blocking assay was designed using a BIACORE™ 3000 instrument. Recombinant human TrkA-hFc and human p75-hFc proteins were amine-coupled to a CM5 chip to a density of about 5000-6000 RU.

[3] = molecular target: Human NGF binding to human p75-hFc (Homo sapiens, UniProt P01138, DEL136-138/DEL208-209); test: BIACORE receptor blocking assay, free NGF bound to p75-hFc; conditions: percentage free NGF bound; NGF 10-25 nM with molar excess of antibody; NGF alone = 100%
Human NGF binding to human p75-hFc, sequence (P01138 with tags, fused parts or gaps DEL136-138/DEL208-209): as above
Description: as §1

Molecule: REGN475: HCVR/LCVR SEQ ID NO:108/110 and mutant hIgG4 SEQ ID NO:543
- Serum NT-3 [1]: not detected
- Paw Withdrawal Threshold (C57BL/6 mice; 25 mg/kg i.p. on day 1 post-surgery, Baseline): 1.286 ± 0.074 g
- Paw Withdrawal Threshold (C57BL/6 mice; 25 mg/kg i.p., 5 hr after treatment): 0.034 ± 0.009 g
- Paw Withdrawal Threshold (C57BL/6 mice; 25 mg/kg i.p., 22 hr after treatment): 0.714 ± 0.074 g
- Paw Withdrawal Threshold (C57BL/6 mice; 25 mg/kg i.p., 45 hr after treatment): 1.086 ± 0.184 g
- Paw Withdrawal Threshold (C57BL/6 mice; 25 mg/kg i.p., 70 hr after treatment): 1.571 ± 0.437 g
- Paw Withdrawal Threshold (C57BL/6 mice; 25 mg/kg i.p., Day 1 (post-surgery, before injection)): 0.010 ± 0.002 g
- pain relief (C57BL/6 male mice; 50 mg/kg s.c. or i.p. at day 7 post-surgery, p<0.001-0.05): Significant pain relief was observed
- mean percent change from Hargreaves baseline (C57BL/6 male mice; Table 25, 50 mg/kg s.c. at day 7, day 5 after surgery): −55.2 ± 3.5%
- mean percent change from Hargreaves baseline (C57BL/6 male mice; Table 25, 50 mg/kg s.c. at day 7, day 7): −50.9 ± 4.3%
- mean percent change from Hargreaves baseline (C57BL/6 male mice; Table 25, 50 mg/kg s.c. at day 7, day 8): 10.3 ± 14.1%
- mean percent change from Hargreaves baseline (C57BL/6 male mice; Table 25, 50 mg/kg s.c. at day 7, day 9): 8.2 ± 7.2%
- mean percent change from Hargreaves baseline (C57BL/6 male mice; Table 25, 50 mg/kg s.c. at day 7, day 12): −20.1 ± 4.3%
- mean percent change from Hargreaves baseline (C57BL/6 male mice; Table 25, 50 mg/kg s.c. at day 7, day 15): −14.1 ± 6.1%
- mean percent change from Hargreaves baseline (C57BL/6 male mice; Table 25, 50 mg/kg s.c. at day 7, day 19): 3.0 ± 10.9%
- mean percent change from Hargreaves baseline (C57BL/6 male mice; Table 25, 50 mg/kg s.c. at day 7, day 22): −13.7 ± 13.4%
- mean percent change from Hargreaves baseline (C57BL/6 male mice; Table 25, 50 mg/kg s.c. at day 7 post-surgery, Baseline): 0.0 ± 0.0%
- mean percent change from Hargreaves baseline (C57BL/6 male mice; Table 26, 50 mg/kg i.p. at day 7, day 5 after surgery): −58.7 ± 2.3%
- mean percent change from Hargreaves baseline (C57BL/6 male mice; Table 26, 50 mg/kg i.p. at day 7, day 7): −61.7 ± 2.7%
- mean percent change from Hargreaves baseline (C57BL/6 male mice; Table 26, 50 mg/kg i.p. at day 7, day 8): −8.2 ± 16.1%
- mean percent change from Hargreaves baseline (C57BL/6 male mice; Table 26, 50 mg/kg i.p. at day 7, day 9): −7.9 ± 9.6%
- mean percent change from Hargreaves baseline (C57BL/6 male mice; Table 26, 50 mg/kg i.p. at day 7, day 12): −0.1 ± 22.8%
- mean percent change from Hargreaves baseline (C57BL/6 male mice; Table 26, 50 mg/kg i.p. at day 7, day 15): −10.8 ± 18.0%
- mean percent change from Hargreaves baseline (C57BL/6 male mice; Table 26, 50 mg/kg i.p. at day 7 post-surgery, Baseline): 0.0 ± 0.0%

B1: p75-hFc: soluble receptorbody: extracellular domain of human p75 fused with Fc portion of human IgG1 (protein)
chain: KEACPTGLYTHSGECCKACNLGEGVAQPCGANQTVCEPCLDSVTFSDVVSATEPCKPCTECVGLQSMSAPCVEADDAVCRCAYGYYQDETTGRCEACRVCEAGSGLVFSCQDKQNTVCEECPDGTYSDEANHVDPCLPCTVCEDTERQLRECTRWADAECEEIPGRWITRSTPPEGSDSTAPSTQEPEAPPEQDLIASTVAGVVTTVMGSSQPVVTRGTTDN
modifications: left off: a dimerising Fc or GST
notes: soluble receptorbody: extracellular domain of human p75 fused with Fc portion of human IgG1
- % Binding TrkA-hFc [2]: 3%
- % Binding p75-hFc [3]: 5%

B2: TrkA-hFc: soluble receptorbody: extracellular domain of human TrkA fused with Fc portion of human IgG1 (protein)
chain: AAPCPDACCPHGSSGLRCTRDGALDSLHHLPGAENLTELYIENQQHLQHLELRDLRGLGELRNLTIVKSGLRFVAPDAFHFTPRLSRLNLSFNALESLSWKTVQGLSLQELVLSGNPLHCSCALRWLQRWEEEGLGGVPEQKLQCHGQGPLAHMPNASCGVPTLKVQVPNASVDVGDDVLLRCQVEGRGLEQAGWILTELEQSATVMKSGGLPSLGLTLANVTSDLNRKNVTCWAENDVGRAEVSVQVNVSFPASVQLHTAVEMHHWCIPFSVDGQPAPSLRWLFNGSVLNETSFIFTEFLEPAANETVRHGCLRLNQPTHVNNGNYTLLAANPFGQASASIMAAFMDNPFEFNPEDPIPVSFSPVDTNSTSGDPVEKKDETPFGVSVAVG
modifications: left off: a dimerising Fc or GST
notes: soluble receptorbody: extracellular domain of human TrkA fused with Fc portion of human IgG1
- % Binding TrkA-hFc [2]: 10%
- % Binding p75-hFc [3]: 15%
